Structures can show the parent of a compound that is named as a salt.
Key:
[1] = regioselective reduction of biomimics with catalyst precursor (2) and sodium formate, followed by 1H NMR; conditions: disappearance of pyridinium signals vs [(CH3)4N]OTf during first 2 hours; compound (1a) set to 1.0
Procedure: The relative rates, seen tabulated in FIG. 1C, were determined by observing disappearance of the pyridinium signals versus an internal standard, [(CH3)4N]OTf (tetramethylammonium triflate), during the first 2 hours, where the relative rate of 1-benzylnicotinamide triflate (1) was set to 1.0. The turnover frequencies were calculated by the formation of mmol of product/mmol of catalyst/hour. The total turnover number in 24 hours was ˜95 for all substrates that gave product. The reactions were conducted in presilylated J. Young NMR tubes and were followed by ^1H NMR.
The electronic effect of differently substituted nicotinamide substrates was determined by their relative rates. The relative rates of these compounds were determined by observing the disappearance of the pyridinium signals compared to interval standard, [(CH3)4N]OTf, during the first 2 hours, where the relative rate of compound (1a) was 1.0.
In a typical reaction, a J. Young NMR tube was charged, biomimic substrates (1a)-(1i) (1.0 mol), 2 (1% mol), and HCO2Na (1.1 mol) used as the hydride source and a Schlenk techniques were conducted to deoxygenate the solid mixture. A diluted solvent was added to these solids for compounds (1a)-(1i), the solvent was D2O-THF-d8 (1=1 0.75 mL, deoxygenated), and the NMR tube was placed in a liquid nitrogen bath. The contents were further degassed by two successive freeze-pump-thaw cycles. After thawing out the reaction mixture, the J. Young NMR tube was immediately put in a salted ice-bath and covered with aluminum foil. The reaction was then followed by ^1H NMR spectroscopy at 26° C. temperature, after a speedy thawing out.
The given relative rates and turnover frequencies were determined by decreasing integration of the corresponding pyridinium salts measured against an internal standard, (CH3)4N(OTf), during the first 2 h of the reaction. The ratios of the 1,4- and 1,6-dihydronicotinamide derivatives of compounds (1a), (1b) and (1d)-(1g) were obtained by comparison of the resonance signals with those of authentic samples, where the diagnostic signal is the resonance for —CH2Ph moiety which can be identified unambiguously in the ^1H NMR spectrum.

[2] = target: T1, horse liver alcohol dehydrogenase (HLADH) (Equus caballus, UniProt P00327); test: HLADH enzymatic chiral reduction of ketones with biomimic co-factor regeneration; format: biochemical
T1 construct: purchased Sigma
T1 sequence (P00327 2-375 limits assumed): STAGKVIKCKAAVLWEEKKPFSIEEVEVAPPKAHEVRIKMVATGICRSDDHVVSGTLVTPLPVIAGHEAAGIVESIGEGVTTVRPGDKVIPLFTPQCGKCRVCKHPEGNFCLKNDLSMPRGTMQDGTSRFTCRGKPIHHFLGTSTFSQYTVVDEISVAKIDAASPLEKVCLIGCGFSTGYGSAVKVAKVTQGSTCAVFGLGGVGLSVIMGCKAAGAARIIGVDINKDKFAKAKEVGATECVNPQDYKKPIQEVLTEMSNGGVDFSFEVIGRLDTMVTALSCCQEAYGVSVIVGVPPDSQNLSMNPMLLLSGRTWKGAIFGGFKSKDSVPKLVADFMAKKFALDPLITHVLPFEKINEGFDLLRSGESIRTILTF
Procedure: FIG. 7 presents structures of ketone substrates 12-15 used for biomimic chiral synthesis of corresponding alcohols. Conversion of the substrates 12-15 to their corresponding alcohols are expressed in % yield, and TOF in d^−1 and S-enantiomer excess (ee) are also shown for each conversion. Corresponding values obtained with NAD^+ are given in parenthesis. The S-enantiomeric excess (ee) was determined by GLC with a modified β-cyclodextrin capillary column.
[Cp*Rh(bpy)(H2O)]OTf2 (1.9 mg, 2.61×10^−3 mmol), sodium formate (17.8 mg, 261.69×10^−3 mmol), NAD^+ (8.1 mg, 11.23×10^−3 mmol) and HLADH (10 units) were placed in a 10 mL Schlenk flask, and Schlenk techniques were followed to deoxygenate the solid mixture.
Under positive argon pressure, 5 mL of potassium phosphate buffer (100 mM, pH=7.02, deoxygenated) and carbonyl substrate (83.58×10^−3 mmol, deoxygenated) were added via syringe. The reaction flask was immediately securely capped with a glass-stopper and shaken with a shaker in 30° C. water-bath. The reaction was monitored by gas chromatography (GC), equipped with a β-cyclodextrin column (Supelco, β-DEX-225), and the products were identified by comparing the retention time with the corresponding authentic chiral samples and were confirmed by GC-MS. The enantiomeric excess of the products was determined directly by their relative area in the chromatogram. The progress of the reaction was obtained by mixing the reaction aliquot with an internal standard (cyclohexanol in phosphate buffer), and then calibrating the measured relative area in the chromatogram with their corresponding response factors. The reaction was monitored for 24 hours.
The same procedure as described in section A was followed, except that NAD^+ was substituted with any one of the biomimic compounds of the invention.

[3] = stability observations (light, air, solvent); format: physicochemical

- recognition by HLADH as hydride catalyst of the chiral conversion [2]: recognizes
- turnover frequency of chiral ketone reduction ([2]; ketone (12) reduced by HLADH with co-factor regeneration, 24 hours): ~30 day⁻¹
- stability [3]: more stable in acqueous/organic solvent
SMILES: NC(=O)c1ccc[n+](Cc2ccccc2)c1 [Compound 1a, 1-Benzylnicotinamide, Triflate Salt]
- relative rate of regioselective reduction [1]: 1.0
